Data reported in US12195470B2, “7-phenoxy-N-(3-azabicyclo[3.2.1]octan-8-yl-6,7-dihydro-5H-pyrrolo[1,2-b][1,2,4]triazol-2-amine derivatives and related compounds as gamma- secretase modulators for the treatment of alzheimer's disease” (Hoffmann-La Roche Inc., priority 2018, dated 2025).

Target: γ-secretase (Homo sapiens, UniProt P49768)
Experiment: Cellular γ-secretase assay (inhibition of Aβ42 secretion, AlphaLisa)
Type: cell-based
Settings: human neuroglioma H4 cells overexpressing human APP695 Swedish double mutation, 24 h compound incubation
Experimental: 2.1) Assay Procedure: Cellular γ-Secretase Assay Human neuroglioma H4 cells overexpressing human APP695 with the Swedish double mutation (K595N/M596L) were plated at 30,000 cells/well/100 μL in 96-well plates in IMDM containing 10% FCS, 0.2 mg/L Hygromycin B and incubated at 37° C., 5% CO2. 3-4 h post plating, compounds are a diluted in media and 50 μL is added as 1.5-fold concentrate to achieve the final concentration. Compound incubation is performed for 24 h. Final doses typically range from 4 μM down to 0.0013 μM in half-log steps resulting in an eight-point dose response curve. Appropriate controls using vehicle only and reference compound were applied to this assay. The final concentration of Me2SO was 0.4%. After incubation at 37° C., 5% CO2, the supernatant was subjected to quantification of secreted Aβ42 by the means of an AlphaLisa® assay kit (Human Amyloid beta 1-42 Kit, Perkin Elmer Inc.). 20 μL of the cell culture supernatant was transferred to an assay plate. Then 10 μL of a mixture of the AlphaLisa® coupled capture antibody and the biotinylated detection antibody was added and incubated for 3 h at RT while softly shaking the assay plate. After a further addition of 20 μL of the Donor beads the assay plate was incubated for 30 min at RT and constant shaking without exposure to direct light. The assay plate was then read on a Paradigm AlphaLisa® Reader using the build-in program with excitation at 680 nm and emission at 570 nm. The measured signals were then used to calculate IC50 values for inhibition of Aβ42 secretion by nonlinear regression fit analysis using XLfit 5.3 software (from IDBS Ltd).

Row | IC50 | SMILES
1 | 65.8 nM | Cc1cc(N2C[C@H]3CC[C@@H](C2)[C@@H]3Nc2nc3n(n2)CCCC[C@@H]3Oc2ccc(F)c(F)c2F)ncn1 (single isomer, unassigned) [Example 62]
2 | 73.8 nM | COc1cc(N2C[C@H]3CC[C@@H](C2)[C@@H]3Nc2nc3n(n2)CC[C@@H]3Oc2cc(F)cc(F)c2)cnn1 (single isomer, unassigned) [Example 2]
3 | 62.7 nM | Cc1cc(N2C[C@H]3CC[C@@H](C2)[C@@H]3Nc2nc3n(n2)CCC[C@@H]3Oc2cc(F)cc(Cl)c2)cnn1 (single isomer, unassigned) [Example 14]
4 | 15.6 nM | Cc1cc(N2C[C@H]3CC[C@@H](C2)[C@@H]3Nc2nc3n(n2)CC[C@H]3Oc2cc(F)cc(F)c2)ncn1 (single isomer, unassigned) [Example 39]
5 | 10.6 nM | COc1cc(N2C[C@H]3CC[C@@H](C2)[C@@H]3Nc2nc3n(n2)CCC[C@H]3Oc2cc(F)cc(F)c2)cnn1 (single isomer, unassigned) [Example 9]
6 | 71.4 nM | Cc1cc(N2C[C@H]3CC[C@@H](C2)[C@@H]3Nc2nc3n(n2)CC[C@@H]3Oc2ccc(Cl)cc2)ncn1 (single isomer, unassigned) [Example 28]
7 | 15.7 nM | COc1cc(N2C[C@H]3CC[C@@H](C2)[C@@H]3Nc2nc3n(n2)CCC[C@H]3Oc2ccccc2Cl)cnn1 (single isomer, unassigned) [Example 25]
8 | 12.8 nM | COc1cc(N2C[C@H]3CC[C@@H](C2)[C@@H]3Nc2nc3n(n2)CC[C@H]3Oc2cc(F)cc(F)c2)cnn1 (single isomer, unassigned) [Example 1]
9 | 51.9 nM | Cc1cc(N2C[C@H]3CC[C@@H](C2)[C@@H]3Nc2nc3n(n2)CC[C@@H]3Oc2cccc(Cl)c2)ncn1 (single isomer, unassigned) [Example 30]
10 | 21.6 nM | Cc1cc(N2C[C@H]3CC[C@@H](C2)[C@@H]3Nc2nc3n(n2)CCC[C@H]3Oc2ccc(F)cc2F)ncn1 (single isomer, unassigned) [Example 37]
